Common to all, as to experiment: pre-emergence greenhouse herbicidal test
Holding throughout (format): in vivo

The subject of experiment [1] is ECHCG (Echinocloa crus-galli). Particulars: pre-emergence method, application rate 0.250 kg/ha, scale from 0 to 100. The source says:
(§1) The seeds of the test plants were sown separately for each species. For the pre-emergence treatment, the active ingredients, which had been suspended or emulsified in water, were applied directly after sowing by means of finely distributing nozzles. The containers were irrigated gently to promote germination and growth and subsequently covered with transparent plastic hoods until the plants had rooted. This cover caused uniform germination of the test plants, unless this had been impaired by the active ingredients. Depending on the species, the plants were kept at 10-25° C. or 20-35° C., respectively. The test period extended over 2 to 4 weeks. During this time, the plants were tended, and their response to the individual treatments was evaluated. Evaluation was carried out using a scale from 0 to 100. 100 means no emergence of the plants, or complete destruction of at least the aerial moieties, and 0 means no damage, or normal course of growth. A moderate herbicidal activity is given at values of at least 60, a good herbicidal activity is given at values of at least 70, and a very good herbicidal activity is given at values of at least 85. The plants used in the greenhouse experiments were of the following species: [table]

The subject of the next experiment is SETFA (Setaria faberi). Particulars: pre-emergence method, scale from 0 to 100.
From the text: as §1

In experiment [2] the test system is AMARE (Amaranthus retroflexus). The following applies: pre-emergence method, scale from 0 to 100.
From the text: as §1

The subject of experiment [3] is ABUTH (Abutilon theophrasti). Particulars: pre-emergence method, application rate 0.500 kg/ha, scale from 0 to 100.
From the text: as §1

The values below come from patent publication US9822082B2, “Diaminotriazine derivatives as herbicides” (BASF SE, priority 2014, dated 2017).

Take `COC1(c2nc(N)nc(Nc3c(F)c(F)cc(F)c3F)n2)CCCCC1` [Example 3, 6-(1-methoxycyclohexyl)-N2-(2,3,5,6-tetrafluorophenyl)-1,3,5-triazine-2,4-diamine]: the “herbicidal activity against ECHCG” value in experiment [1] is “very good herbicidal activity (a very good herbicidal activity is given at values of at least 85)”. The “herbicidal activity against SETFA” value in the experiment with SETFA (Setaria faberi) (application rate 0.250 kg/ha) is recorded as “very good herbicidal activity (a very good herbicidal activity is given at values of at least 85)”. In addition, in experiment [2] (application rate 0.250 kg/ha), the “herbicidal activity against AMARE” value is “very good herbicidal activity (a very good herbicidal activity is given at values of at least 85)”.

As to `COC1(c2nc(N)nc(Nc3c(F)c(F)cc(F)c3F)n2)CCC1` [Example 1, 6-(1-methoxycyclobutyl)-N4-(2,3,5,6-tetrafluorophenyl)-1,3,5-triazine-2,4-diamine], the “herbicidal activity against SETFA” value in the experiment on SETFA (Setaria faberi) (application rate 0.500 kg/ha) was “very good herbicidal activity (a very good herbicidal activity is given at values of at least 85)”. Besides, the “herbicidal activity against ABUTH” value in experiment [3] is listed as “very good herbicidal activity (a very good herbicidal activity is given at values of at least 85)”. The “herbicidal activity against AMARE” value in experiment [2] (application rate 0.500 kg/ha) was “very good herbicidal activity (a very good herbicidal activity is given at values of at least 85)”.

On to `COC1(c2nc(N)nc(Nc3c(F)c(F)cc(F)c3F)n2)CCCC1` [Example 2, 6-(1-methoxycyclopentyl)-N2-(2,3,5,6-tetrafluorophenyl)-1,3,5-triazine-2,4-diamine], for which the “herbicidal activity against SETFA” value in the experiment on SETFA (Setaria faberi) (application rate 0.500 kg/ha) is recorded as “very good herbicidal activity (a very good herbicidal activity is given at values of at least 85)”. In addition, the “herbicidal activity against ABUTH” value in experiment [3] is “very good herbicidal activity (a very good herbicidal activity is given at values of at least 85)”. The “herbicidal activity against AMARE” value in experiment [2] (application rate 0.500 kg/ha) is reported as “very good herbicidal activity (a very good herbicidal activity is given at values of at least 85)”.
